The results in this text go back to US5955440A, “Macrolide LHRH antagonists” (Abbott Laboratories, priority 1998, dated 1999).

Each structure is given as a SMILES string.

As a reminder, the Kb is the affinity of an antagonist, worked out from how it opposes an agonist.

Assay [1] addresses T1, rat pituitary cells (Rattus norvegicus, UniProt P30969).
T1 construct: endogenous in cells; host or cells: rat pituitary cells
T1 sequence (P30969 1-327): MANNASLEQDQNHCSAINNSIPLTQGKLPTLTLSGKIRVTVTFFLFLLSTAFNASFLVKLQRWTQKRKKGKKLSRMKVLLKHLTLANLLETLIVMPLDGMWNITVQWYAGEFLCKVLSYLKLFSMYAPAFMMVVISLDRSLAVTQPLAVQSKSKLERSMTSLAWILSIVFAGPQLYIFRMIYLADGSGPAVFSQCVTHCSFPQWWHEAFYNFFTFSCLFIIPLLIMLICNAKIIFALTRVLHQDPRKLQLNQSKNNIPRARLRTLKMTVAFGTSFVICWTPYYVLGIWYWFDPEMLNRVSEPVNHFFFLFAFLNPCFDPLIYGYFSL
The experiment in a line: LH inhibition from rat pituitary cells, antagonist potency (pA2). The class given is cell-based. To be noted: negative log of antagonist concentration shifting the leuprolide response curve to two-fold higher concentration, Table 2. How it is done:
(§1) Representative compounds of the present invention were evaluated in in vitro tests for LHRH rat pituitary receptor binding (pKI) and for LH inhibition from rat pituitary cells for antagonist potency (pA2). The tests employed the methods detailed in F. Haviv, et al. J. Med. Chem., 32: 2340-2344 (1989). The receptor binding affinity (pKI) is the negative logarithm of the equilibrium dissociation constants.
The pA2 value is the negative logarithm of the concentration of antagonist which shifts the response curve produced by the agonist leuprolide to two-fold higher concentration. Leuprolide is the LHRH agonist having the structure pyro-Glu^1 -His^2 -Trp^3 -Ser^4 -Tyr^5 -D-Leu^6 -Leu^7 -Arg^8 -Pro^9 -NHEt and is disclosed and claimed in U.S. Pat. No. 4,005,063. Typically pA2 values of 7.0 or greater are indicative of good LHRH antagonist potency.

The target of assay [2] is T2, LHRH rat pituitary receptor (Rattus norvegicus, UniProt P30969).
T2 construct: from tissue; host or cells: rat pituitary
T2 sequence (P30969 1-327): T1 sequence (P30969 1-327)
The experiment in a line: LHRH rat pituitary receptor binding (pKI). To be noted: negative logarithm of the equilibrium dissociation constants, Table 1, read-out: receptor binding affinity (pKI) (converted). How it is done:
as §1

For `CCCN(C)[C@H]1C[C@@H](C)O[C@@H](O[C@@H]2[C@@H](C)[C@H](O[C@H]3C[C@@](C)(OC)[C@@H](O)[C@H](C)O3)[C@@H](C)C(=O)O[C@H](CC)[C@@]3(C)OC(=O)N(CCc4cccc(Cl)c4)[C@@H]3[C@@H](C)C(=O)[C@H](C)C[C@@]2(C)OC)[C@@H]1O` [Example 25, 3'-N-Desmethyl-3'-N-n-propyl-11-deoxy-11-[carboxy-(3-chlorophenethylamino)]-6-O-methyl-erythromycin A 11,12-(cyclic carbamate)], the Kb in assay [1] is 37.2 nM. Besides, in assay [2], the Ki was 4.17 nM.
For the compound `CC[C@H]1OC(=O)[C@H](C)[C@@H](O[C@H]2C[C@@](C)(OC)[C@@H](O)[C@H](C)O2)[C@H](C)[C@@H](O[C@@H]2O[C@H](C)C[C@H](N(C)C3CCCC3)[C@H]2O)[C@](C)(OC)C[C@@H](C)C(=O)[C@H](C)[C@H]2N(CCc3ccc(F)c(Cl)c3)C(=O)O[C@]12C` [Example 26, 3'-N-Desmethyl-3'-N-cyclopentyl-11-deoxy-11-[carboxy-(3-chloro-4-fluorophenethylamino)]-6-O-methyl-erythromycin A 11,12-(cyclic carbamate)], in assay [1], the Kb is 2.19 nM. In addition, in assay [2], the Ki was 1.48 nM.
On to `CC[C@H]1OC(=O)[C@H](C)[C@@H](O[C@H]2C[C@@](C)(OC)[C@@H](O)[C@H](C)O2)[C@H](C)[C@@H](O[C@@H]2O[C@H](C)C[C@H](N(C)C3CCC3)[C@H]2O)[C@](C)(OC)C[C@@H](C)C(=O)[C@H](C)[C@H]2N(CCc3ccc(F)c(Cl)c3)C(=O)O[C@]12C` [Example 27, 3'-N-Desmethyl-3'-N-cyclobutyl-11-deoxy-11-[carboxy-(3-chloro-4-fluorophenethylamino)]-6-O-methyl-erythromycin A 11,12-(cyclic carbamate)], for which the Kb in assay [1] is 3.8 nM. Besides, in assay [2], the Ki is 1.55 nM.
On to `CC[C@H]1OC(=O)[C@H](C)[C@@H](O[C@H]2C[C@@](C)(OC)[C@@H](O)[C@H](C)O2)[C@H](C)[C@@H](O[C@@H]2O[C@H](C)C[C@H](N(C)C(C)C)[C@H]2O)[C@](C)(OC)C[C@@H](C)C(=O)[C@H](C)[C@H]2N(CCc3ccc(F)c(Cl)c3)C(=O)O[C@]12C` [Example 28, 3'-N-Desmethyl-3'-N-isopropyl-11-deoxy-11-[carboxy-(3-chloro-4-fluorophenethylamino)]-6-O-methyl-erythromycin A 11,12-(cyclic carbamate)], for which, in assay [1], the Kb was 3.02 nM. In addition, the Ki in assay [2] is 0.324 nM.
In the case of `CC[C@H]1OC(=O)[C@H](C)[C@@H](O[C@H]2C[C@@](C)(OC)[C@@H](O)[C@H](C)O2)[C@H](C)[C@@H](O[C@@H]2O[C@H](C)C[C@H](N(C)CC3CC3)[C@H]2O)[C@](C)(OC)C[C@@H](C)C(=O)[C@H](C)[C@H]2N(CCc3ccc(F)c(Cl)c3)C(=O)O[C@]12C` [Example 29, 3'-N-Desmethyl-3'-N-cyclopropylmethyl-11-deoxy-11-(3-chloro-4-fluorophenethylamino)-6-O-methyl-erythromycin A 11,12-(cyclic carbamate)], in assay [1], the Kb was 1.07 nM. Moreover, the Ki in assay [2] was 0.537 nM.
Take `CC[C@H]1OC(=O)[C@H](C)[C@@H](O[C@H]2C[C@@](C)(OC)[C@@H](O)[C@H](C)O2)[C@H](C)[C@@H](O[C@@H]2O[C@H](C)C[C@H](N(C)C3CCC3)[C@H]2O)[C@](C)(OC)C[C@@H](C)C(=O)[C@H](C)[C@H]2N(CCc3ccc(F)c(F)c3)C(=O)O[C@]12C` [Example 30, 3'-N-Desmethyl-3'-N-cyclobutyl-11-deoxy-11-[carboxy-(3,4-difluorophenethylamino)]-6-O-methyl-erythromycin A 11,12-(cyclic carbamate)]: in assay [1], the Kb is 5.25 nM. The Ki in assay [2] is 0.513 nM.
With `CC[C@H]1OC(=O)[C@H](C)[C@@H](O[C@H]2C[C@@](C)(OC)[C@@H](O)[C@H](C)O2)[C@H](C)[C@@H](O[C@@H]2O[C@H](C)C[C@H](N(C)C3CCCC3)[C@H]2O)[C@](C)(OC)C[C@@H](C)C(=O)[C@H](C)[C@H]2N(CCc3ccc(F)c(F)c3)C(=O)O[C@]12C` [Example 31, 3'-N-Desmethyl-3'-N-cyclopentyl-11-deoxy-11-[carboxy-(3,4-difluorophenethylamino)]-6-O-methyl-erythromycin A 11,12-(cyclic carbamate)], the Kb in assay [1] is 5.75 nM. For the same compound, the Ki in assay [2] was 0.269 nM.
For the compound `CCCN(C)[C@H]1C[C@@H](C)O[C@@H](O[C@@H]2[C@@H](C)[C@H](O[C@H]3C[C@@](C)(OC)[C@@H](O)[C@H](C)O3)[C@@H](C)C(=O)O[C@H](CC)[C@@]3(C)OC(=O)N(CCc4ccc(F)c(F)c4)[C@@H]3[C@@H](C)C(=O)[C@H](C)C[C@@]2(C)OC)[C@@H]1O` [Example 32, 3'-N-Desmethyl-3'-N-n-propyl-11-deoxy-11-[carboxy-(3,4-difluorophenethylamino)]-6-O-methyl-erythromycin A 11,12-(cyclic carbamate)], the Kb in assay [1] is 26.3 nM. Also, the Ki in assay [2] was 0.0832 nM.
Take `CC[C@H]1OC(=O)[C@H](C)[C@@H](O[C@H]2C[C@@](C)(OC)[C@@H](O)[C@H](C)O2)[C@H](C)[C@@H](O[C@@H]2O[C@H](C)C[C@H](N(C)CC3CC3)[C@H]2O)[C@](C)(OC)C[C@@H](C)C(=O)[C@H](C)[C@H]2N(CCc3ccc(F)c(F)c3)C(=O)O[C@]12C` [Example 33, 3'-N-Desmethyl-3'-N-cyclopropylmethyl-11-deoxy-11-[carboxy-(3,4-difluorophenethylamino)]-6-O-methyl-erythromycin A 11,12-(cyclic carbamate)]: the Kb in assay [1] is 3.98 nM. In assay [2], the Ki was 0.676 nM.
